The values that follow come from publication PMC7392676 (BMC Microbiology, 2020).

For one assay, the system named is Xf. Conditions: cited from earlier work.
Another assay deals with Xff strain Temecula. Format: cell-based, Xylella fastidiosa subsp. fastidiosa.
For assay [1], the system named is Xanthomonas axonopodis pv. vesicatoria. Conditions: cited from earlier work.
In assay [2] the test system is Pseudomonas syringae pv. syringae. Particulars: cited from earlier work.
A further assay deals with Erwinia amylovora. Particulars: cited from earlier work.

With dermaseptin, in the assay on Xf, the “MIC or MBC against Xf” value was 8 to 32 µg/mL.
gomesin: the “MIC or MBC against Xf” value in the assay with Xf was 4.5 to 9 µg/mL.
On to KDWEHLKDWEHLKDWEHL-OH [tag54], for which, in the assay on Xff strain Temecula, the “Log N0/N (log reduction of Xff cell viability)” value stood at 0 ± 0 log and the “antimicrobial activity against Xff cells (in words)” value is reported as “did not show antimicrobial activity”. Besides, the “MIC Xav” value in assay [1] was greater than 100 µM. Moreover, the “MIC Psa” value in assay [2] is greater than 100 µM. In the assay on Erwinia amylovora, the “MIC Ea” value is greater than 100 µM.
For magainin II, the “MIC or MBC against Xf” value in the assay on Xf was 8 to 64 µg/mL.
